From patent US8350032B2, “Integrated photoactive agents for real-time monitoring of hemostasis” (MediBeacon Development, LLC, priority 2007, dated 2013)

Test system: production of thrombin via activation of the extrinsic cascade (tissue factor pathway)
Assay: whole blood activity screen: inhibition of thrombin production when clotting is activated via the tissue factor pathway (extrinsic cascade)
Type: biochemical
Settings: nine concentrations, in triplicate, FIG. 4
Protocol: The compound (MP3117) of Example 1 was tested for its ability to inhibit the production of thrombin via activation of the extrinsic cascade. In particular, an assay that included a whole blood activity screen was performed. In this regard, nine aqueous solutions containing varying concentrations of the compound of Example 1 were tested for their ability to inhibit thrombin production when clotting was activated via the tissue factor pathway (in triplicate). The data from the assay was also utilized to extract the IC50 for the compound. Incidentally, “IC50” refers to the amount of a compound necessary to inhibit 50% of the active enzyme to which it binds.

- IC50: 12.4 ± 0.79 nM
Compound: N=C(N)c1ccc(CNC(=O)c2nc(N)c(C(=O)NCc3ccc(C(=N)N)cc3)nc2N)cc1 [Example 1, 3,6-diamino-N2,N5-bis(4-carbamimidoylbenzyl)pyrazine-2,5-dicarboxamide]
